Source: PubChem BioAssay (NCI)
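Following 48 hours of exposure in 96-well plates, responses at five concentrations were used to interpolate endpoints linearly. GI50 is the concentration that inhibits growth by half. TGI: total growth inhibition.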

Legend:
Test in all cases: NCI tumour cell line growth inhibition, 48 h
[1] = system: 786-0 renal
[2] = system: A498 renal
[3] = system: ACHN renal
[4] = system: BT-549 breast
[5] = system: CAKI-1 renal
[6] = system: CCRF-CEM leukemia
[7] = system: COLO 205 colon
[8] = system: DU-145 prostate
[9] = system: EKVX NSCLC
[10] = system: HCC-2998 colon
[11] = system: HCT-116 colon
[12] = system: HCT-15 colon
[13] = system: HL-60(TB) leukemia
[14] = system: HOP-62 NSCLC
[15] = system: HOP-92 NSCLC
[16] = system: HS 578T breast
[17] = system: HT29 colon
[18] = system: IGROV1 ovarian
[19] = system: K-562 leukemia
[20] = system: KM12 colon
[21] = system: LOX IMVI melanoma
[22] = system: M14 melanoma
[23] = system: MALME-3M melanoma
[24] = system: MCF7 breast
[25] = system: MDA-MB-231 breast
[26] = system: MDA-MB-435
[27] = system: MOLT-4 leukemia
[28] = system: NCI-H226 lung

## CN(C)CCCNc1c2ccc(Cl)cc2nc2c1oc1ccccc12
[1]
  GI50: 3.2 µM
  TGI: 14.2 µM
[2]
  GI50: 7.55 µM
  TGI: 21.2 µM
[3]
  GI50: 1.78 µM
  TGI: 12.2 µM
[4]
  GI50: 4.12 µM
  TGI: 14.4 µM
[5]
  GI50: 1.59 µM
  TGI: 4.39 µM
[6]
  GI50: 2.57 µM
  TGI: 10.3 µM
[7]
  GI50: 1.51 µM
  TGI: 4.03 µM
[8]
  GI50: 3.49 µM
  TGI: 79.2 µM
[9]
  GI50: 3.51 µM
  TGI: 21.3 µM
[10]
  GI50: 1.77 µM
  TGI: 4.18 µM
[11]
  GI50: 1.42 µM
  TGI: 8.19 µM
[12]
  GI50: 2.35 µM
  TGI: 11.1 µM
[13]
  GI50: 2.52 µM
  TGI: 8.94 µM
[14]
  GI50: 2.61 µM
  TGI: 9.05 µM
[15]
  GI50: 1.34 µM
  TGI: 5.13 µM
[16]
  GI50: 3.53 µM
  TGI: 22.2 µM
[17]
  GI50: 1.34 µM
  TGI: 3.58 µM
[18]
  GI50: 2.77 µM
  TGI: 7.49 µM
[19]
  GI50: 2.02 µM
  TGI: 11.7 µM
[20]
  GI50: 2.76 µM
  TGI: 16.8 µM
[21]
  GI50: 1.86 µM
  TGI: 4.1 µM
[22]
  GI50: 1.69 µM
  TGI: 3.45 µM
[23]
  GI50: 3.1 µM
  TGI: 10.6 µM
[24]
  GI50: 1.77 µM
  TGI: 6.02 µM
[25]
  GI50: 2.44 µM
  TGI: 8.61 µM
[26]
  GI50: 1.65 µM
  TGI: 3.32 µM
[27]
  GI50: 0.676 µM
  TGI: 13.2 µM
[28]
  GI50: 3.19 µM
  TGI: 11.9 µM
